Measured values taken from patent US20070074300A1, “Sialidase inhibitors for the treatment of cardiovascular disease” (priority 2005, published 2007).

What was measured:
[1] = system: differentiated human THP-1 macrophages; assay: IL-6 production by differentiated THP-1 macrophages in culture (ELISA); type: cell-based; settings: differentiated THP-1 macrophages incubated 3 days with varying concentrations; IL-6 in culture supernatant by ELISA; FIG. 7
Protocol: The effects of a sialidase inhibitor, N-acetyl-2,3-dehydro-2-deoxyneuraminic acid (ADDN), on the production of the inflammatory cytokine interleukin-6 (IL-6) by differentiated human THP-1 macrophages in culture was measured.
FIG. 7 illustrates that the inhibition of sialidase activity suppresses production of the pro-atherogenic cytokine IL-6 in differentiated THP-1 macrophages. Differentiated THP-1 macrophages were incubated for 3 days with the varying concentrations of the sialidase inhibitor ADDN. Levels of the cytokine IL-6 in samples of the cell culture supernatant were quantified by ELISA. Data are presented as the mean±standard deviation of triplicate experimental groups. (* denotes significant difference, P<0.001).

[2] = system: ApoE KO mice; assay: Serum glucose and serum/lipoprotein cholesterol in apoE KO mice treated with sialidase inhibitor; type: in vivo, mouse; settings: vs saline control, FIG. 8
Protocol: Control mice received daily injections of saline. Data reveal significant reductions in serum glucose levels, and total and LDL cholesterol. P<0.01.
Plasma was prepared from heparinized blood collected by cardiac puncture (Covey et al 2003). Serum was collected from blood using serum separators (Becton Dickenson). Serum was submitted to the Clinical Diagnostic Laboratory at the McMaster University Medical Centre for analyses of standard metabolic parameters including total cholesterol, LDL cholesterol and glucose. Lipoproteins from plasma were separated by size by fast protein liquid chromatography (FPLC) using an AKTA system (Amersham Biosciences, Inc.) with a Superose 6 HR 10/30 column, as described previously (Covey et al 2003). The total cholesterol content in each fraction was assayed using an enzymatic assay kit from Thermo DMA. Lipoproteins (VLDL, LDL and HDL) from human plasma were run as controls to calibrate the column.
The inhibitor, N-Acetyl-2,3-dehydro-2-deoxyneuraminic acid (ADDN), was obtained from Sigma Chemical Company (St. Louis, Mo.). ApoE KO mice were ˜6 weeks of age at the beginning of the study. The mice were randomized into 2 groups of 6. The control group received daily i.p injections of 0.9% saline (0.1 ml/day for […]). The experimental group received daily i.p. injections of 0.9% saline (0.1 ml per day) containing either 0.1 or 0.4 ug ADDN for 7 days. Serum was collected on day 7 and serum glucose, total cholesterol and LDL levels were measured.

[3] = system: ApoE KO mice; assay: Atherosclerosis (aortic sinus lesion area and volume) in apoE KO mice treated with sialidase inhibitor; type: in vivo, mouse; settings: male apoE KO mice aged 7 months, mini-osmotic pump 1.5 micro-g/day for 6 weeks, vs saline
Protocol: FIG. 9 illustrate a morphometric evaluation of atherosclerotic lesion area (A) and volume (B) in the aortic sinus of male ApoE−/− mice treated for 6 weeks with the sialic acid inhibitor ADDN (N-Acetyl-2,3-dehydro-2-deoxyneuraminic acid). Mice aged 7 months were treated for 6 weeks with either saline or the sialic acid inhibitor ADDN. (n=8 in each case). A third group of mice was euthanized at the beginning of the experiment so that the level of atherosclerosis at the time that treatment was initiated could be measured (Base, n=9). Atherosclerotic lesion cross sectional areas in the aortic root (A) and lesion volumes (B) were measured. Values are the averages ±standard error of the mean. Lesion progression was reduced in ADDN-treated mice compared to saline controls. […]
For diet-induced atherosclerosis, mice were fed (beginning four weeks after transplantation) with a high fat, Western-type diet (Covey et al 2003) obtained from Dyets, Inc. (Bethlehem Pa.). […] Atherosclerotic plaque cross sectional area was measured by morphometry using Axiovision software (Carl Zeiss Canada, Inc). A total of eight sections lying at 0.1 mm intervals along the aortic sinus were analyzed for each mouse. […] The volume of atherosclerotic plaque was therefore calculated as the sum of the volumes determined for each 0.1 mm portion of the aortic sinus. […]

[4] = daily i.p. 0.1 or 0.4 ug for 7 days

**Q.** With CC(=O)N[C@H]1[C@H]([C@H](O)[C@H](O)CO)OC(C(=O)O)=C[C@@H]1O [ADDN, N-Acetyl-2,3-dehydro-2-deoxyneuraminic acid] as the compound, how does the “production of the inflammatory cytokine IL-6” value [1] read?
**A.** reduced production of IL-6

**Q.** What about the LDL cholesterol [2, 4] of the same compound?
**A.** significantly less

**Q.** And the serum glucose [2, 4]?
**A.** significantly decreased

**Q.** And the serum total cholesterol [2, 4]?
**A.** significantly less

**Q.** What about the HDL cholesterol ([2]; daily i.p. injections) of the same compound?
**A.** significantly less

**Q.** What about the “growth of atherosclerotic plaque cross sectional area from baseline” value ([3]; aortic root, FIG. 9A) of the same compound?
**A.** substantially inhibited

**Q.** What about the “growth of atherosclerotic plaque volume from baseline” value ([3]; aortic sinus, FIG. 9B) of the same compound?
**A.** substantially inhibited
